# Data: patent publication US20080032924A1 (priority 2004, published 2008)
# “Also recorded” adds a separate entry of the source. Where no end group is shown, it is not given here.
# Experiments:
# [1] = tested on: Leptosphaeria maculans spores; format: cell-based
# Micrococcus luteus = format: cell-based
# Escherichia coli = format: cell-based
# Aspergillus niger spores = format: cell-based; parameters: key: an N indicates that no activity was observed
# F. oxysporum mycelia = format: cell-based, Fusarium oxysporum
# F. graminearum mycelia = format: cell-based, Fusarium graminearum
# Ascochyta rabiei spores = format: cell-based
# [2] = tested on: Fusarium graminearum spores; format: cell-based
# [3] = tested on: Colletotrichum gloeosporioides spores; format: cell-based; parameters: key: an N indicates that no activity was observed
# [4] = tested on: Fusarium oxysporum spores; format: cell-based
# C. tropicalis = experiment: NCCLS M27-A2 microbroth dilution method; format: cell-based; conditions: synthetic peptide, tested at 0.125-64 μg/ml
# Procedure: (§1) Synthetic Gm-moricinA was also tested against six yeast species using the NCCLS M27-A2 microbroth dilution method at the Women's and Children's Hospital (Adelaide, Australia). The yeasts tested were Candida albicans, C. parapsilosis, C. glabrata, C. krusei, C. tropicalis and Cryptococcus neoformans. The peptide was tested at 0.125-64 μg/ml, with each yeast species tested in duplicate. Trays were read at 24, 48 or 72 hours as appropriate.
# C. glabrata = experiment: NCCLS M27-A2 microbroth dilution method; format: cell-based; conditions: synthetic peptide, tested at 0.125-64 μg/ml
# Procedure: as §1
# C. krusei = experiment: NCCLS M27-A2 microbroth dilution method; format: cell-based; conditions: synthetic peptide, tested at 0.125-64 μg/ml
# Procedure: as §1
# Candida albicans = experiment: NCCLS M27-A2 microbroth dilution method; format: cell-based; conditions: synthetic peptide; C. albicans; tested at 0.125-64 μg/ml; read at 24, 48 or 72 hours
# Procedure: as §1
# Cryptococcus neoformans = experiment: NCCLS M27-A2 microbroth dilution method; format: cell-based; conditions: synthetic peptide; C. neoformans; tested at 0.125-64 μg/ml
# Procedure: as §1
# C. parapsilosis = experiment: NCCLS M27-A2 microbroth dilution method; format: cell-based; conditions: synthetic peptide, tested at 0.125-64 μg/ml
# Procedure: as §1
Substance,"lowest concentration at which activity was observed in the zone inhibition assay, Lma [1]","lowest concentration at which activity was observed in the zone inhibition assay, Mlu (Micrococcus luteus)","lowest concentration at which activity was observed in the zone inhibition assay, Eco (Escherichia coli)","lowest concentration at which activity was observed in the zone inhibition assay, Ani (Aspergillus niger spores)","lowest concentration at which activity was observed in the zone inhibition assay, Fom (F. oxysporum mycelia)","lowest concentration at which activity was observed in the zone inhibition assay, Fgm (F. graminearum mycelia)","lowest concentration at which activity was observed in the zone inhibition assay, Ara (Ascochyta rabiei spores)","lowest concentration at which activity was observed in the zone inhibition assay, Fgr [2]","lowest concentration at which activity was observed in the zone inhibition assay, Cgl [3]","lowest concentration at which activity was observed in the zone inhibition assay, Fox [4]",activity against F. graminearum [2],activity against L. maculans [1],MIC90 (C. tropicalis),MIC90 (C. glabrata),MIC90 (C. krusei),MIC90 (Candida albicans),MIC90 (Cryptococcus neoformans),MIC90 (C. parapsilosis),activity against A. rabiei (Ascochyta rabiei spores)
Bm-moricin: Synthetic B. mori moricin (residues 25 to 66 of SEQ ID NO:16) (AKIPIKAIKTVGKAVGKGLRAINIASTANDVFNFLKPKKRKH; listed as Bombyx mori) [reference compound],100 µM,10 µM,10 µM,N,100 µM,180 µM,100 µM,10 µM,N,100 µM,–,–,–,–,–,–,–,–,–
"Gm-moricinB: Antifungal moricin-like peptide from Galleria mellonella, SEQ ID NO:5 (GGQIIGKALRGINIASTAHDIISQFKPKKKKNH; listed as Galleria mellonella)",100 µM,100 µM,100 µM,N,280 µM,280 µM,–,10 µM,N,100 µM,showed activity,–,–,–,–,–,–,–,–
"Gm-moricinC1: Antifungal moricin-like peptide purified from Galleria mellonella hemolymph, SEQ ID NO:48 (KVPIGAIKKGGKIIKKGLGVIGAAGTAHEVYSHVKNRH; listed as Galleria mellonella)",–,–,–,–,–,–,–,–,–,–,had activity,–,–,–,–,–,–,–,–
"Gm-moricinC2: Moricin-like peptide from Galleria mellonella, SEQ ID NO:53, synthesised (KVPIGAIKKGGKIIKKGLGVLGAAGTAHEVYNHVRNRQ; listed as Galleria mellonella)",10 µM,100 µM,10 µM,N,10 µM,10 µM,–,1 µM,–,–,–,–,–,–,–,–,–,–,–
KVNVNAIKKGGKAIGKGFKVISAASTAHDVYEHIKNRRH [Gm-moricinA],10 µM,10 µM,10 µM,N,10 µM,100 µM,1 µM,1 µM,N,10 µM,had activity; also recorded: showed activity,showed activity,4.0 mg/L,64.0 mg/L,8.0 mg/L,64.0 mg/L,4.0 mg/L,4.0 mg/L,showed activity
